The source of these data is patent US4284631A, “7-Substituted cephem compounds and pharmaceutical antibacterial compositions containing them” (Fujisawa Pharmaceutical Co., Ltd., priority 1978, dated 1981).

Converted amounts (≈) assume the structure as drawn. Counter-ions that a name gives are not always drawn.

What all share (test): In vitro antibacterial activity, two-fold agar-plate dilution method
What all share (type): cell-based

The subject of test [1] is Proteus vulgaris IAM-1025. The following applies: IAM1025, HI-agar, 37° C., 20 hours, read-out: MIC (minimal inhibitory concentration). As to the method: (§1) In vitro antibacterial activity was determined by the two-fold agar-plate dilution method as described below.
(§2) One loopful of the 100-fold dilution of an overnight culture of each test strain in Trypticasesoy broth was streaked on heart infusion agar (HI-agar) containing graded concentrations of the test compound and incubated at 37° C. for 20 hours. The minimal inhibitory concentration (MIC) was expressed in μg/ml.

The subject of test [2] is Pseudomonus aeruginosa NCTC-10490. The following applies: HI-agar, 37° C., 20 hours, read-out: MIC (minimal inhibitory concentration). As for the experimental part: as §1, §2
The test system of the next test is Proteus mirabilis 18. The note with it: HI-agar, 37° C., 20 hours, read-out: MIC (minimal inhibitory concentration). As for the experimental part: as §1, §2
Test [3] concerns Staphylococcus aureus 209 P JC-1. The note with it: 209PJC1, HI-agar, 37° C., 20 hours, read-out: MIC (minimal inhibitory concentration). As for the experimental part: as §1, §2
For test [4], the system named is Escherichia coli NIHJ JC-2. The following applies: NIHJJC2, HI-agar, 37° C., 20 hours, read-out: MIC (minimal inhibitory concentration). As to the method: as §1, §2
The subject of a further test is Klebsiella pneumoniae 20. The note with it: HI-agar, 37° C., 20 hours, read-out: MIC (minimal inhibitory concentration). As for the experimental part: as §1, §2

Turning to `N#CCO/N=C(\C(=O)NC1C(=O)N2C(C(=O)O)=CCSC12)c1csc(N)n1` (stereo not drawn) [Compound 1, 7-[2-(2-aminothiazol-4-yl)-2-cyanomethoxyiminoacetamido]-3-cephem-4-carboxylic acid (syn isomer)], the MIC in test [1] was found to be 0.025 µg/mL (≈ 0.0612 µM); in test [2], 1.56 µg/mL (≈ 3.82 µM); in the test on Proteus mirabilis 18 it was 0.025 µg/mL (≈ 0.0612 µM); in test [3] it was 6.25 µg/mL (≈ 15.3 µM); in test [4] it was 0.05 µg/mL (≈ 0.122 µM); with Klebsiella pneumoniae 20 it was 0.025 µg/mL (≈ 0.0612 µM).

Regarding `Nc1nc(/C(=N/OCCO)C(=O)NC2C(=O)N3C(C(=O)O)=CCSC23)cs1` (stereo not drawn) [Compound 2, 7-[2-(2-aminothiazol-4-yl)-2-(2-hydroxyethoxyimino)acetamido]-3-cephem-4-carboxylic acid (syn isomer)], the MIC came out at 0.025 µg/mL (≈ 0.0605 µM) in test [1]; 3.13 µg/mL (≈ 7.57 µM) in test [2]; 0.025 µg/mL (≈ 0.0605 µM) in the test on Proteus mirabilis 18; 12.5 µg/mL (≈ 30.2 µM) in test [3]; 0.05 µg/mL (≈ 0.121 µM) in test [4]; 0.025 µg/mL (≈ 0.0605 µM) in the test with Klebsiella pneumoniae 20.

Regarding `CCOCCO/N=C(\C(=O)NC1C(=O)N2C(C(=O)O)=CCSC12)c1csc(N)n1` (stereo not drawn) [Compound 3, 7-[2-(2-aminothiazol-4-yl)-2-(2-ethoxyethoxyimino)acetamido]-3-cephem-4-carboxylic acid (syn isomer)], the MIC came out at 0.025 µg/mL (≈ 0.0566 µM) in test [1]; 1.56 µg/mL (≈ 3.53 µM) in test [2]; 0.2 µg/mL (≈ 0.453 µM) with Proteus mirabilis 18; 3.13 µg/mL (≈ 7.09 µM) in test [3]; 0.2 µg/mL (≈ 0.453 µM) in test [4]; 0.025 µg/mL (≈ 0.0566 µM) in the test on Klebsiella pneumoniae 20.

For `CSCO/N=C(\C(=O)NC1C(=O)N2C(C(=O)O)=CCSC12)c1csc(N)n1` (stereo not drawn) [Compound 4, 7-[2-(2-aminothiazol-4-yl)-2-(methylthiomethoxyimino)acetamido]-3-cephem-4-carboxylic acid (syn isomer)], the MIC came out at 0.025 µg/mL (≈ 0.0582 µM) in test [1]; 1.56 µg/mL (≈ 3.63 µM) in test [2]; 0.05 µg/mL (≈ 0.116 µM) in the test on Proteus mirabilis 18; 1.56 µg/mL (≈ 3.63 µM) in test [3]; 0.05 µg/mL (≈ 0.116 µM) in test [4]; 0.025 µg/mL (≈ 0.0582 µM) in the test on Klebsiella pneumoniae 20.

As to `NCc1ccc(CO/N=C(\C(=O)NC2C(=O)N3C(C(=O)O)=CCSC23)c2csc(N)n2)cc1` (stereo not drawn) [Compound 5, 7-[2-(2-aminothiazol-4-yl)-2-(4-aminomethylbenzyloxyimino)acetamido]-3-cephem-4-carboxylic acid dihydrochloride (syn isomer)], the MIC amounted to 0.05 µg/mL in test [1]; 3.13 µg/mL in test [2]; 0.1 µg/mL in the test on Proteus mirabilis 18; 0.78 µg/mL in test [3]; 0.1 µg/mL in test [4]; 0.05 µg/mL in the test with Klebsiella pneumoniae 20.

In the case of `Nc1nc(/C(=N/OCc2ccon2)C(=O)NC2C(=O)N3C(C(=O)O)=CCSC23)cs1` (stereo not drawn) [Compound 6, 7-[2-(2-aminothiazol-4-yl)-2-(3-isoxazolylmethoxyimino)acetamido]-3-cephem-4-carboxylic acid (syn isomer)], the MIC in test [1] is 0.025 µg/mL (≈ 0.0555 µM); in test [2], 1.56 µg/mL (≈ 3.46 µM); in the test with Proteus mirabilis 18, 0.1 µg/mL (≈ 0.222 µM); in test [3] it was 3.13 µg/mL (≈ 6.95 µM); in test [4], 0.1 µg/mL (≈ 0.222 µM); in the test on Klebsiella pneumoniae 20, 0.025 µg/mL (≈ 0.0555 µM).
